Molecules are shown by their SMILES. pIC50: −log10 of the molar value. Where “and” joins values, the source holds several entries; their conditions need not be identical. Equal values may be shown once.

The target in the test is T1, B-RAF (Homo sapiens, UniProt P15056, V600E).
T1 construct: made in house
Kind of test: DELFIA Kinase Assay. Conditions: 100 μM ATP, GST-MEK substrate. It is filed as biochemical. As for the experimental part: Biological Methods—DELFIA Kinase Assay
Compounds were assessed by a kinase assay performed according to the following protocol.
DKB1 (DKB with B-RAF and MEK Protein):
Combine 4950 μL of DKB and 50 μL of 2.5 mg/ml GST-MEK stock (to give […] of MEK per 40 μL). Then add 22.5 μL of B-RAF to give ˜0.2 μL of B-RAF per 40 μL.
100 mM stock, dilute to 500 μM to give 100 μM final concentration in assay.
• 1. Preblock wells with 5% milk in TBS for 1 hour. • 2. Wash wells with 3× with 200 μL TBS. • 3. Plate out 40 μL of DKB1 for all inhibitors (test compounds), DMSO control, and optionally other control compounds. • 4. Plate out 40 μL of DKB2 for BO and EV wells. • 5. Add inhibitors (test compounds) at 0.5 μL per well according to desired plate layout. • 6. Add 0.5 μL DMSO to vehicle control wells. • 7. Add 2 μL of B-RAF to BO and EV wells. • 8. Pre-incubate with inhibitors (test compounds) for 10 minutes at room temperature with shaking. • 9. Add 10 μL of 500 μM ATP stock, in DKB, to give 100 μM assay concentration. • 10. Seal plates with TopSeal and incubate at room temperature with shaking for 45 minutes. • 11. Wash plates 3× with 200 μL 0.1% Tween20/Water to terminate reaction. • 12. Add 50 μL per well of antibody mix and incubate for 1 hour at room temperature with shaking. • 13. Wash plates 3× with 200 μL 0.1% Tween20/Water. • 14. Add 100 μL DELFIA enhancement solution per well, cover in foil, and incubate at room temperature for 30 minutes with shaking. • 15. Read on Victor using Europium protocol.
Values for the blank (Empty Vector) are subtracted from all values. The DMSO controls are set as 100% activity and assay points (the response) are calculated as a percentage of the DMSO control. Data are plotted using Graphpad Prism software and a non-linear regression line is calculated using a variable slope sigmoidal dose-response equation (Y=Bottom+(Top−Bottom)/(1+10^((LogEC50−X)*HillSlope)) where X is the logarithm of concentration. Y is the response). The IC50 generated by this procedure is the concentration of the drug that produces a percentage control fluorescence value midway between the saturation, and zero-effect plateaus. Three independent assays are usually performed and the mean IC50 is reported.

T1 sequence (P15056 whole entry V600E): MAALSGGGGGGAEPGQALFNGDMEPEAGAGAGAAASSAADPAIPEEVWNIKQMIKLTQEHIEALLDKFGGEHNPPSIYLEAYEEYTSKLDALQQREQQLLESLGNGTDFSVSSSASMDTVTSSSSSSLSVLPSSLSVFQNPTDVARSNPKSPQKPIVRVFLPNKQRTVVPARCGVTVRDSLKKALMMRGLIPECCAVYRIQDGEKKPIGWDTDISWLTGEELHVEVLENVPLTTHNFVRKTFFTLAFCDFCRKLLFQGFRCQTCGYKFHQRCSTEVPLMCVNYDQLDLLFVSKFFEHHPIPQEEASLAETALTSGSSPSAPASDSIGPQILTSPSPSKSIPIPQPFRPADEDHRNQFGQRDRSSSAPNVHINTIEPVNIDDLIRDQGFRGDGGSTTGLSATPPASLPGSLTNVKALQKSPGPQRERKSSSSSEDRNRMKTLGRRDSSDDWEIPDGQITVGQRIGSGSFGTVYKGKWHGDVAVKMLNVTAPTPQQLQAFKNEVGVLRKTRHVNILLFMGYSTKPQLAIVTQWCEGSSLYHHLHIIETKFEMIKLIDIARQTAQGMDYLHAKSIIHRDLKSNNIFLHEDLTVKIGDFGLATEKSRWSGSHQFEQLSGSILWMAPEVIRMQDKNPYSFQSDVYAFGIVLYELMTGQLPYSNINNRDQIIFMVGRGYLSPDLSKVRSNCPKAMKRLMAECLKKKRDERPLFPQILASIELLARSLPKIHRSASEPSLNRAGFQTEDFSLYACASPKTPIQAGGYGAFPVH

Turning to `CC(C)(C)c1cccc(C(=O)Nc2cccc(Oc3ccnc4ncc(=O)[nH]c34)c2)c1` [AA-029, 3-tert-butyl-N-(3-(2-oxo-1,2-dihydropyrido[2,3-b]pyrazin-8-yloxy)phenyl)benzamide], the pIC50 (commonly the IC50 on a negative log10 scale, so that one unit is a factor of ten) is more than 7.00. In the case of `O=C(Nc1cc(C(F)(F)F)ccc1F)Nc1ccc(Oc2ccnc3ncc(=O)[nH]c23)c2ccccc12` [AA-038, 1-(2-fluoro-5-(trifluoromethyl)phenyl)-3-(4-(2-oxo-1,2-dihydropyrido[2,3-b]pyrazin-8-yloxy)naphthalen-1-yl)urea] it was > 6.00 and 6.00 to 7.00; in that of `O=C(Nc1ccc(Cl)c(C(F)(F)F)c1)Nc1ccc(Oc2ccnc3[nH]c(=O)cnc23)cc1F` [AA-025, 1-(4-Chloro-3-(trifluoromethyl)phenyl)-3-(2-fluoro-4-(3-oxo-3,4-dihydropyrido[2,3-b]pyrazin-8-yloxy)phenyl)urea], more than 7.00; in that of `Cc1ccc(-n2nc(C(C)(C)C)cc2NC(=O)Nc2ccc(Oc3ccnc4[nH]c(=O)cnc34)cc2F)cc1` [AA-018, 1-(3-tert-butyl-1-p-tolyl-1H-pyrazol-5-yl)-3-(2-fluoro-4-(3-oxo-3,4-dihydropyrido[3,2-b]pyrazin-8-yloxy)phenyl)urea], more than 7.00. Regarding `CN1CCN(c2cnc3c(Oc4ccc(NC(=O)Nc5cc(C(C)(C)C)nn5-c5ccccc5)c(F)c4)ccnc3n2)CC1` [AA-053, 1-(3-Tert-butyl-1-phenyl-1H-pyrazol-5-yl)-3-(2-fluoro-4-(3-(4-methylpiperazin-1-yl)pyrido[2,3-b]pyrazin-8-yloxy)phenyl)urea], the pIC50 is > 6.00 and 6.00 to 7.00.

`Cc1nc2c(Oc3ccc(NC(=O)Nc4cc(C(F)(F)F)ccc4F)c(F)c3)ccnc2[nH]c1=O` [AA-028, 1-(2-Fluoro-4-(2-methyl-3-oxo-3,4-dihydropyrido[2,3-b]pyrazin-8-yloxy)phenyl)-3-(2-fluoro-5-(trifluoromethyl)phenyl)urea]: the pIC50 was more than 7.00.

For `CSc1cc(Oc2ccnc3ncc(=O)[nH]c23)ccc1NC(=O)Nc1cc(C(F)(F)F)ccc1F` [AA-046, 1-(2-fluoro-5-(trifluoromethyl)phenyl)-3-(2-(methylthio)-4-(2-oxo-1,2-dihydropyrido[2,3-b]pyrazin-8-yloxy)phenyl)urea], the negative logarithm of the IC50 (pIC50) was > 6.00 and 6.00 to 7.00. Compound `Cc1ccc(-n2nc(C(C)(C)C)cc2NC(=O)Nc2ccc(Oc3ccnc4[nH]c(=O)c(C)nc34)c3ccccc23)cc1` [AA-011, 1-(3-tert-butyl-1-p-tolyl-1H-pyrazol-5-yl)-3-(4-(2-methyl-3-oxo-3,4-dihydropyrido[2,3-b]pyrazin-8-yloxy)naphthalen-1-yl)urea] had a negative-log IC50 (pIC50) of more than 7.00. With `CC(C)(C)c1cc(NC(=O)c2cccc(Oc3ccnc4[nH]c(=O)cnc34)c2)n(-c2ccccc2)n1` [AA-001, N-(3-tert-butyl-1-phenyl-1H-pyrazol-5-yl)-3-(3-oxo-3,4-dihydropyrido[2,3-b]pyrazin-8-yloxy)benzamide], the pIC50 was > 6.00 and 6.00 to 7.00. Turning to `CSc1cc(Oc2ccnc3ncc(=O)[nH]c23)ccc1NC(=O)Nc1ccc(Cl)c(C(F)(F)F)c1` [AA-045, 1-(4-chloro-3-(trifluoromethyl)phenyl)-3-(2-(methylthio)-4-(2-oxo-1,2-dihydropyrido[2,3-b]pyrazin-8-yloxy)phenyl)urea], the pIC50 was more than 7.00. Compound `O=C(Nc1ccc(Sc2ccnc3[nH]c(=O)cnc23)cc1)Nc1cc(C(F)(F)F)ccc1F` [AA-027, 1-(2-Fluoro-5-(trifluoromethyl)phenyl)-3-(4-(3-oxo-3,4-dihydropyrido[2,3-b]pyrazin-8-ylthio)phenyl)urea] had a pIC50 of more than 7.00. In turn, `Nc1nc2c(Oc3ccc(NC(=O)Nc4cc(C(F)(F)F)ccc4F)c(F)c3)ccnc2[nH]c1=O` [AA-044, 1-(4-(2-amino-3-oxo-3,4-dihydropyrido[2,3-b]pyrazin-8-yloxy)-2-fluorophenyl)-3-(2-fluoro-5-(trifluoromethyl)phenyl)urea] showed a negative logarithm of the IC50 (pIC50) of more than 7.00. Then `Cc1nc2nccc(Oc3ccc(NC(=O)Nc4cc(C(F)(F)F)ccc4F)c(F)c3)c2[nH]c1=O` [AA-049, 1-(2-fluoro-4-(3-methyl-2-oxo-1,2-dihydropyrido[3,2-b]pyrazin-8-yloxy)phenyl)-3-(2-fluoro-5-(trifluoromethyl)phenyl)urea], with > 6.00 and 6.00 to 7.00; and `Cc1ccc(-n2nc(C(C)(C)C)cc2NC(=O)Nc2ccc(Oc3ccnc4[nH]c(=O)cnc34)cc2)cc1` [AA-016, 1-(3-tert-butyl-1-p-tolyl-1H-pyrazol-5-yl)-3-(4-(3-oxo-3,4-dihydropyrido[2,3-b]pyrazin-8-yloxy)phenyl)urea], with > 6.00 and 6.00 to 7.00 and 6.60. In the case of `O=C(Nc1ccc(Oc2ccnc3ncc(=O)[nH]c23)cc1)Nc1ccc(Cl)c(C(F)(F)F)c1` [AA-042, 1-(4-chloro-3-(trifluoromethyl)phenyl)-3-(4-(2-oxo-1,2-dihydropyrido[2,3-b]pyrazin-8-yloxy)phenyl)urea], the pIC50 is > 6.00 and 6.00 to 7.00.

Compound `Nc1nc2c(Oc3ccc(NC(=O)Nc4cc(C(F)(F)F)ccc4F)c4ccccc34)ccnc2[nH]c1=O` [AA-015, 1-(4-(2-amino-3-oxo-3,4-dihydropyrido[2,3-b]pyrazin-8-yloxy)naphthalen-1-yl)-3-(2-fluoro-5-(trifluoromethyl)phenyl)urea] had a pIC50 of more than 7.00. As to `CC(C)(C)c1cc(NC(=O)Nc2ccc(Oc3ccnc4ncc(=O)[nH]c34)c3ccccc23)n(-c2ccccc2)n1` [AA-034, 1-(3-tert-butyl-1-phenyl-1H-pyrazol-5-yl)-3-(4-(2-oxo-1,2-dihydropyrido[2,3-b]pyrazin-8-yloxy)naphthalen-1-yl)urea], the negative logarithm of the IC50 (pIC50) is > 6.00 and 6.00 to 7.00. `CC(C)(C)c1cc(NC(=O)Nc2ccc(Oc3ccnc4[nH]c(=O)cnc34)c3ccccc23)n(-c2ccccc2)n1` [AA-008, 1-(3-tert-butyl-1-phenyl-1H-pyrazol-5-yl)-3-(4-(3-oxo-3,4-dihydropyrido[2,3-b]pyrazin-8-yloxy)naphthalen-1-yl)urea]: the negative-log IC50 (pIC50) was more than 7.00.

`CSc1cc(Oc2ccnc3[nH]c(=O)c(=O)[nH]c23)ccc1NC(=O)Nc1cc(C(F)(F)F)ccc1F` [AA-052, 1-(4-(2,3-dioxo-1,2,3,4-tetrahydropyrido[2,3-b]pyrazin-8-yloxy)-2-(methylthio)phenyl)-3-(2-fluoro-5-(trifluoromethyl)phenyl)urea] gave a pIC50 of more than 7.00.

Turning to `Cc1nc2c(Oc3ccc(NC(=O)Nc4cc(C(C)(C)C)nn4-c4ccccc4)c4ccccc34)ccnc2[nH]c1=O` [AA-009, 1-(3-tert-butyl-1-phenyl-1H-pyrazol-5-yl)-3-(4-(2-methyl-3-oxo-3,4-dihydropyrido[2,3-b]pyrazin-8-yloxy)naphthalen-1-yl)urea], the pIC50 was more than 7.00. `O=C(Nc1ccc(Oc2ccnc3[nH]c(=O)cnc23)cc1F)Nc1cc(C(F)(F)F)ccc1F` [AA-026, 1-(2-Fluoro-5-(trifluoromethyl)phenyl)-3-(2-fluoro-4-(3-oxo-3,4-dihydropyrido[2,3-b]pyrazin-8-yloxy)phenyl)urea] showed a pIC50 of more than 7.00. `Cc1nc2nccc(Oc3ccc(NC(=O)Nc4cc(C(C)(C)C)nn4-c4ccccc4)c(F)c3)c2[nH]c1=O` [AA-041, 1-(3-Tert-butyl-1-phenyl-1H-pyrazol-5-yl)-3-(2-fluoro-4-(3-methyl-2-oxo-1,2-dihydropyrido[2,3-b]pyrazin-8-yloxy)phenyl)urea]: the negative-log IC50 (pIC50) is 6.00 to 7.00. `Cc1nc2c(Oc3cccc(NC(=O)c4cccc(OC(F)(F)F)c4)c3)ccnc2[nH]c1=O` [AA-004] had a pIC50 of more than 7.00. As for `O=C(Nc1ccc(Oc2ccnc3[nH]c(=O)cnc23)cc1)Nc1ccc(Cl)c(C(F)(F)F)c1` [AA-020, 1-(4-chloro-3-(trifluoromethyl)phenyl)-3-(4-(3-oxo-3,4-dihydropyrido[2,3-b]pyrazin-8-yloxy)phenyl)urea], the pIC50 was more than 7.00. With `Nc1nc2nccc(Oc3ccc(NC(=O)Nc4cc(C(F)(F)F)ccc4F)c(F)c3)c2[nH]c1=O` [AA-022, 1-(4-(3-amino-2-oxo-1,2-dihydropyrido[2,3-b]pyrazin-8-yloxy)-2-fluorophenyl)-3-(2-fluoro-5-(trifluoromethyl)phenyl)urea], the pIC50 is > 6.00 and 6.00 to 7.00.

Values taken from patent US8198279B2, “Pyrido[2,3-b]pyrazin-8-substituted compounds and their use” (Institute of Cancer Research: Royal Cancer Hospital (The), priority 2007, dated 2012).
